For this assay, the target named is T1, native (Human Hepatoma Huh-7) AhR receptor (Homo sapiens, UniProt P35869).
T1 construct: expression of native (Human Hepatoma Huh-7) AhR receptor reporter gene cells; endogenous in cells; host or cells: Human hepatoma Huh-7 cells carrying a firefly luciferase reporter vector
T1 sequence (P35869 11-848): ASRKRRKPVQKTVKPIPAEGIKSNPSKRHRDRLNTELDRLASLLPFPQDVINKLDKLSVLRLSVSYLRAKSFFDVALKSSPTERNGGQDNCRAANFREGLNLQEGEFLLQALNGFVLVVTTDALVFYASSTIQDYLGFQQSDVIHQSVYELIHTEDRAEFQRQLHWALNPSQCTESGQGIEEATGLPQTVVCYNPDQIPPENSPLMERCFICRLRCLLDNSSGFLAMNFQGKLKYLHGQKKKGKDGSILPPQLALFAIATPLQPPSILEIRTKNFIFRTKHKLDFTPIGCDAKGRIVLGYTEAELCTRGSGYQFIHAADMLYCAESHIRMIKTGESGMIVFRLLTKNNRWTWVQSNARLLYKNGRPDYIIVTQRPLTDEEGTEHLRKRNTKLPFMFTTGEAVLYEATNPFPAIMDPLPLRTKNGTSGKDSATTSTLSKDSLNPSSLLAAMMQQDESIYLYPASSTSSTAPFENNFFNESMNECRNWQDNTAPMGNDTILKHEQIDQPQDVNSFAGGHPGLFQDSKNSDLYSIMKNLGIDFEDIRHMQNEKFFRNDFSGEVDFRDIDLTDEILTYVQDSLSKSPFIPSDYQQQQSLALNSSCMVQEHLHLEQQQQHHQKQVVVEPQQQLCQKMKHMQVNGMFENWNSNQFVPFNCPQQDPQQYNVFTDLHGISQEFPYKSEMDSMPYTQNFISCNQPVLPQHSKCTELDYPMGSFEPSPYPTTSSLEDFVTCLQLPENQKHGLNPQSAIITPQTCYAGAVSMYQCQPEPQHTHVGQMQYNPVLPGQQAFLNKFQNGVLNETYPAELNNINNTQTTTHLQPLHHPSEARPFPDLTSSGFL
Put plainly: AhR agonism assay (luciferase reporter gene cells). The format is cell-based. The method, then: Assay Materials (plasmids): expression of native (Human Hepatoma Huh-7) AhR receptor reporter gene cells, the reporter vector includes functional firefly luciferase gene linked to upstream receptor-specific genetic response elements (GRE).
The AhR agonism assay comprises the following three steps:
1. Cell implantation: a suspension of AhR receptor cells was prepared in cell recovery medium (CRM; FBS containing 10% activated carbon). Then, the prepared suspension (100 μl) was dispensed into wells of a white 96-well culture plate.
2. Right before the beginning of the experiment, Master Stocks were diluted to “2× concentration” treatment media with appropriate compound screening media (CSM: FBS containing 10% activated carbon). The test compounds were subjected to gradient dilution with CSM medium containing 0.2% DMSO, so that the final concentration of DMSO in each experimental well for each treatment group was 0.1%. […] The experimental plate was placed in an incubator at 37° C. for 24 h.
3. Fluorescence detection and analysis: after completion of the incubation, the treatment media were discarded and 100 μL/well of luciferase detection reagent was added. The Ave RLU (average relative fluorescence intensity) of each well and the coefficient of variation for each experimental group were determined. The activity of AhR receptor with various concentrations of the test compounds was quantitatively determined using a ratio of Ave RLU^Test Cmpd of various concentrations of the test compounds in the experimental group to Ave RLU^Vehicle of the blank control group, and fold activation and EC50 were determined.
For data processing method, refer to J. Biomol.
Background: A reporter such as luciferase makes a cellular process visible.

Where two headings read alike, the source gives them in different places.

As to `CC(C)c1ncc(C(=O)c2c[nH]c3ccccc23)s1` [Compound 10], for the setting “AhR receptor reporter gene cells, 24 h incubation at 37° C., luciferase readout, read-out: EC50”, the EC50 was 10 to 100 µM.
`COC(=O)c1nsc(C(=O)c2c[nH]c3ccc(F)cc23)n1` [Compound 13]: the EC50 was in the range of 1 to 10 µM.
Same read-out and setting: under `COC(=O)c1nsc(C(=O)c2c[nH]c3ccc(OC)cc23)n1` [Compound 14] stands 1 to 10 µM.

Usually EC50 stands for the concentration needed to bring the measured effect to its halfway point.
